Holding throughout (assay): MIC, microdilution broth method (NCCLS)
Common to all, as to assay type: cell-based
Background: Broth dilution looks for growth in wells or tubes with falling amounts of substance.

One assay deals with E. coli OC2605. The note with it: A: E. coli OC2605, 35° C., 16-20 hours. In outline: (§1)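 Bacteria at about 5×10^4 CFU per well were exposed to two-fold drug dilution series in cation-adjusted Mueller-Hinton broth and incubated 16–20 h at 35 °C. MIC was read against growth-control wells, following the NCCLS microdilution standard.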
The next assay relates to E. faecalis ATCC29212. The note with it: C: E. faecalis ATCC29212, 35° C., 16-20 hours. Put shortly: as §1
The next assay has as its system H. influenzae ATCC49247. The settings on record: E: H. influenzae ATCC49247, 35° C., 16-20 hours. In outline:
as §1

A further assay deals with S. aureus ATCC29213. The note with it: B: S. aureus ATCC29213, 35° C., 16-20 hours. In outline: as §1
Another assay relates to S. pneumoniae ATCC49619. The note with it: D: S. pneumoniae ATCC49619, 35° C., 16-20 hours. In outline:
as §1

In brackets after ≈: the same amount, converted by molar mass. Read-outs that look alike come from different tables or passages of the source.

Experimental findings from patent publication US6613747B2, “6-O-carbamoyl ketolide antibacterials” (Ortho-McNeil Pharmaceutical, Inc., priority 2000, dated 2003) are described below.

Regarding `CC[C@H]1OC(=O)[C@H](C)C(=O)[C@H](C)[C@@H](O[C@@H]2O[C@H](C)C[C@H](N(C)C)[C@H]2O)[C@](C)(OC(=O)NC/C=C/c2ccc(Br)nc2)C[C@@H](C)C(=O)[C@H](C)[C@H]2NC(=O)O[C@@]21C` [Compound 72], the MIC against E. coli OC2605 was 8 µg/mL (≈ 9.55 µM); against E. faecalis ATCC29212, 0.06 µg/mL (≈ 0.0716 µM); with H. influenzae ATCC49247, 2 µg/mL (≈ 2.39 µM); against S. aureus ATCC29213 it was 0.25 µg/mL (≈ 0.298 µM); in the assay with S. pneumoniae ATCC49619, “≦0.015 μg/mL”.
As to `CC[C@H]1OC(=O)[C@H](C)C(=O)[C@H](C)[C@@H](O[C@@H]2O[C@H](C)C[C@H](N(C)C)[C@H]2O)[C@](C)(OC(=O)NC/C=C/c2ccc(-c3ccn(C)n3)cc2)C[C@@H](C)C(=O)[C@H](C)[C@H]2NC(=O)O[C@@]21C` [Compound 43, Carbamic acid, [(2E)-3-[4-(1-methyl-1H-pyrazol-3-yl)phenyl]-2-propenyl]-, (3aS,4R,7R,9R,10R,11R,13R,15R,15aR)-4-ethyltetradecahydro-3a,7,9,11,13,15-hexamethyl-2,6,8,14-tetraoxo-10-[[3,4,6-trideoxy-3-(dimethylamino)-β-D-xylo-hexopyranosyl]oxy]-2H-oxacyclotetradecino[4,3-d]oxazol-11-yl ester], the MIC in the assay with E. coli OC2605 (Escherichia coli, read-out: MIC) was over 16 µg/mL; in the assay on E. faecalis ATCC29212 (Enterococcus faecalis, read-out: MIC), 0.12 µg/mL (≈ 0.143 µM); in the assay on H. influenzae ATCC49247 (Haemophilus influenzae, read-out: MIC) it was 2 µg/mL (≈ 2.39 µM); in the assay on S. aureus ATCC29213 (Staphylococcus aureus, read-out: MIC), 0.25 µg/mL (≈ 0.298 µM); with S. pneumoniae ATCC49619 (Streptococcus pneumoniae, read-out: MIC), 0.03 µg/mL (≈ 0.0358 µM).
For `CC[C@H]1OC(=O)[C@H](C)C(=O)[C@H](C)[C@@H](O[C@@H]2O[C@H](C)C[C@H](N(C)C)[C@H]2O)[C@](C)(OC(=O)NC/C=C/c2ccc(-n3cncn3)c(F)c2)C[C@@H](C)C(=O)[C@H](C)[C@H]2NC(=O)O[C@@]21C` [Compound 53], the MIC in the assay on E. coli OC2605 was 16 µg/mL (≈ 19 µM); in the assay with E. faecalis ATCC29212, 0.12 µg/mL (≈ 0.142 µM); in the assay on H. influenzae ATCC49247, 4 µg/mL (≈ 4.75 µM); in the assay on S. aureus ATCC29213, 0.25 µg/mL (≈ 0.297 µM); in the assay with S. pneumoniae ATCC49619, 0.03 µg/mL (≈ 0.0356 µM).
Consider `CC[C@H]1OC(=O)[C@H](C)C(=O)[C@H](C)[C@@H](O[C@@H]2O[C@H](C)C[C@H](N(C)C)[C@H]2O)[C@](C)(OC(=O)NC/C=C/c2ccc(-c3ccncc3)cc2)C[C@@H](C)C(=O)[C@H](C)[C@H]2NC(=O)O[C@@]21C` [Compound 26], for which the MIC in the assay with E. coli OC2605 was over 16 µg/mL; against E. faecalis ATCC29212, 0.12 µg/mL (≈ 0.144 µM); with H. influenzae ATCC49247, 2 µg/mL (≈ 2.4 µM); in the assay on S. aureus ATCC29213, 0.5 µg/mL (≈ 0.599 µM); with S. pneumoniae ATCC49619 it was 0.03 µg/mL (≈ 0.0359 µM).
For `CCC1OC(=O)C(C)(F)C(=O)C(C)C(OC2OC(C)CC(N(C)C)C2O)C(C)(OC(=O)NCC=Cc2ccc3ncccc3c2)CC(C)C(=O)C(C)C2NC(=O)OC12C` (stereo not shown) [Compound 90] the same measures were 8 µg/mL (≈ 9.67 µM), 0.06 µg/mL (≈ 0.0726 µM), 4 µg/mL (≈ 4.84 µM), 0.25 µg/mL (≈ 0.302 µM) and 0.03 µg/mL (≈ 0.0363 µM).
For the compound `CC[C@H]1OC(=O)[C@H](C)C(=O)[C@H](C)[C@@H](O[C@@H]2O[C@H](C)C[C@H](N(C)C)[C@H]2O)[C@](C)(OC(=O)NCCN(C)Cc2ccc(-c3ncccn3)cc2)C[C@@H](C)C(=O)[C@H](C)[C@H]2NC(=O)O[C@@]21C` [Compound 117], the MIC was over 16 µg/mL against E. coli OC2605; 0.5 µg/mL (≈ 0.577 µM) with E. faecalis ATCC29212; over 16 µg/mL against H. influenzae ATCC49247; 2 µg/mL (≈ 2.31 µM) against S. aureus ATCC29213; 0.06 µg/mL (≈ 0.0692 µM) in the assay with S. pneumoniae ATCC49619.
In the case of `CC[C@H]1OC(=O)[C@H](C)C(=O)[C@H](C)[C@@H](O[C@@H]2O[C@H](C)C[C@H](N(C)C)[C@H]2O)[C@](C)(OC(=O)NCc2ccc(-n3cccn3)cc2F)C[C@@H](C)C(=O)[C@H](C)[C@H]2NC(=O)O[C@@]21C` [Compound 73], the MIC with E. coli OC2605 is 16 µg/mL (≈ 19.6 µM); against E. faecalis ATCC29212, 0.06 µg/mL (≈ 0.0735 µM); against H. influenzae ATCC49247, 2 µg/mL (≈ 2.45 µM); with S. aureus ATCC29213, 0.5 µg/mL (≈ 0.613 µM); against S. pneumoniae ATCC49619 it was 0.03 µg/mL (≈ 0.0368 µM).
Turning to `CC[C@H]1OC(=O)[C@H](C)C(=O)[C@H](C)[C@@H](O[C@@H]2O[C@H](C)C[C@H](N(C)C)[C@H]2O)[C@](C)(OC(=O)NC/C=C/c2ccc(-c3ccnn3C)cc2)C[C@@H](C)C(=O)[C@H](C)[C@H]2NC(=O)O[C@@]21C` [Compound 44], the MIC is over 16 µg/mL in the assay with E. coli OC2605; 0.12 µg/mL (≈ 0.143 µM) in the assay on E. faecalis ATCC29212; 2 µg/mL (≈ 2.39 µM) against H. influenzae ATCC49247; 0.25 µg/mL (≈ 0.298 µM) against S. aureus ATCC29213; 0.12 µg/mL (≈ 0.143 µM) with S. pneumoniae ATCC49619.
With `CC[C@H]1OC(=O)[C@H](C)C(=O)[C@H](C)[C@@H](O[C@@H]2O[C@H](C)C[C@H](N(C)C)[C@H]2O)[C@](C)(OC(=O)NCc2ccc(-n3cccn3)cc2)C[C@@H](C)C(=O)[C@H](C)[C@H]2NC(=O)O[C@@]21C` [Compound 7], the MIC with E. coli OC2605 is 16 µg/mL (≈ 20.1 µM); in the assay with E. faecalis ATCC29212, 0.06 µg/mL (≈ 0.0752 µM); against H. influenzae ATCC49247, 4 µg/mL (≈ 5.01 µM); against S. aureus ATCC29213, 0.5 µg/mL (≈ 0.627 µM); in the assay on S. pneumoniae ATCC49619, 0.03 µg/mL (≈ 0.0376 µM).
For `CCC1OC(=O)C(C)(F)C(=O)C(C)C(OC2OC(C)CC(N(C)C)C2O)C(C)(OC(=O)NCC=Cc2ccc(-n3cccn3)cc2)CC(C)C(=O)C(C)C2NC(=O)OC12C` (stereo not shown) [Compound 91] the same measures were 16 µg/mL (≈ 19 µM), 0.12 µg/mL (≈ 0.143 µM), 4 µg/mL (≈ 4.75 µM), 0.25 µg/mL (≈ 0.297 µM) and 0.06 µg/mL (≈ 0.0713 µM).
For `CC[C@H]1OC(=O)[C@H](C)C(=O)[C@H](C)[C@@H](O[C@@H]2O[C@H](C)C[C@H](N(C)C)[C@H]2O)[C@](C)(OC(=O)NCc2ccc(-c3nccc(C)n3)cc2)C[C@@H](C)C(=O)[C@H](C)[C@H]2NC(=O)O[C@@]21C` [Compound 69] the same measures were over 16 µg/mL, 0.12 µg/mL (≈ 0.146 µM), 8 µg/mL (≈ 9.71 µM), 0.5 µg/mL (≈ 0.607 µM) and 0.03 µg/mL (≈ 0.0364 µM).
As to `CCC1OC(=O)C(C)C(=NOC)C(C)C(OC2OC(C)CC(N(C)C)C2O)C(C)(OC(=O)NCC=Cc2ccc(-c3ncccn3)cc2)CC(C)C(=NOC)C(C)C2NC(=O)OC12C` (stereo not shown) [Compound 134], the MIC was over 16 µg/mL against E. coli OC2605; 1 µg/mL (≈ 1.12 µM) with E. faecalis ATCC29212; over 16 µg/mL in the assay on H. influenzae ATCC49247; 2 µg/mL (≈ 2.24 µM) against S. aureus ATCC29213; 0.12 µg/mL (≈ 0.134 µM) against S. pneumoniae ATCC49619.
As for `CC[C@H]1OC(=O)[C@H](C)C(=O)[C@H](C)[C@@H](O[C@@H]2O[C@H](C)C[C@H](N(C)C)[C@H]2O)[C@](C)(OC(=O)NC/C=C/c2ccc(-n3cccn3)nc2)C[C@@H](C)C(=O)[C@H](C)[C@H]2NC(=O)O[C@@]21C` [Compound 49], the MIC was 16 µg/mL (≈ 19.4 µM) in the assay on E. coli OC2605; 0.06 µg/mL (≈ 0.0727 µM) in the assay on E. faecalis ATCC29212; 2 µg/mL (≈ 2.42 µM) with H. influenzae ATCC49247; 0.25 µg/mL (≈ 0.303 µM) in the assay with S. aureus ATCC29213; 0.06 µg/mL (≈ 0.0727 µM) with S. pneumoniae ATCC49619.
`CC[C@H]1OC(=O)[C@H](C)C(=O)[C@H](C)[C@@H](O[C@@H]2O[C@H](C)C[C@H](N(C)C)[C@H]2O)[C@](C)(OC(=O)N2CCC(c3ccccc3)CC2)C[C@@H](C)C(=O)[C@H](C)[C@H]2NC(=O)O[C@@]21C` [Compound 137]: the MIC was over 16 µg/mL against E. coli OC2605; 1 µg/mL (≈ 1.27 µM) against E. faecalis ATCC29212; 8 µg/mL (≈ 10.2 µM) in the assay on H. influenzae ATCC49247; 4 µg/mL (≈ 5.09 µM) against S. aureus ATCC29213; 0.25 µg/mL (≈ 0.318 µM) against S. pneumoniae ATCC49619.
Regarding `CC[C@H]1OC(=O)[C@H](C)C(=O)[C@H](C)[C@@H](O[C@@H]2O[C@H](C)C[C@H](N(C)C)[C@H]2O)[C@](C)(OC(=O)NC/C=C/c2ccc(-c3ccccn3)cc2)C[C@@H](C)C(=O)[C@H](C)[C@H]2NC(=O)O[C@@]21C` [Compound 19], the MIC came to 16 µg/mL (≈ 19.2 µM) against E. coli OC2605; 0.12 µg/mL (≈ 0.144 µM) in the assay on E. faecalis ATCC29212; 4 µg/mL (≈ 4.79 µM) with H. influenzae ATCC49247; 0.12 µg/mL (≈ 0.144 µM) in the assay on S. aureus ATCC29213; 0.03 µg/mL (≈ 0.0359 µM) in the assay with S. pneumoniae ATCC49619.
As to `CC[C@H]1OC(=O)[C@H](C)C(=O)[C@H](C)[C@@H](O[C@@H]2O[C@H](C)C[C@H](N(C)C)[C@H]2O)[C@](C)(OC(=O)NC/C=C/C=C/c2ccc(-n3cccn3)cc2)C[C@@H](C)C(=O)[C@H](C)[C@H]2NC(=O)O[C@@]21C` [Compound 60], the MIC against E. coli OC2605 was over 16 µg/mL; against E. faecalis ATCC29212 it was 0.5 µg/mL (≈ 0.588 µM); in the assay with H. influenzae ATCC49247 it was 8 µg/mL (≈ 9.41 µM); in the assay with S. aureus ATCC29213 it was 1 µg/mL (≈ 1.18 µM); in the assay with S. pneumoniae ATCC49619 it was 0.25 µg/mL (≈ 0.294 µM).
Regarding `CC[C@H]1OC(=O)[C@H](C)C(=O)[C@H](C)[C@@H](O[C@@H]2O[C@H](C)C[C@H](N(C)C)[C@H]2O)[C@](C)(OC(=O)NCCCc2ccc(-c3ncccn3)cc2)C[C@@H](C)C(=O)[C@H](C)[C@H]2NC(=O)O[C@@]21C` [Compound 80, Carbamic acid, [3-[4-(2-2pyrimidinyl)phenyl]propyl]-, (3aS,4R,7R,9R,10R,11R,13R,15R,15aR)-4-ethyltetradecahydro-3a,7,9,11,13,15-hexamethyl-2,6,8,14-tetraoxo-10-[[3,4,6-trideoxy-3-(dimethylamino)-b-β-xylo-hexopyranosyl]oxy]-2H-oxacyclotetradecino[4,3-d]oxazol-11-yl ester], the MIC in the assay with E. coli OC2605 is over 16 µg/mL; against E. faecalis ATCC29212 it was 0.06 µg/mL (≈ 0.0716 µM); in the assay on H. influenzae ATCC49247, 4 µg/mL (≈ 4.77 µM); in the assay with S. aureus ATCC29213, 0.12 µg/mL (≈ 0.143 µM); with S. pneumoniae ATCC49619, 0.03 µg/mL (≈ 0.0358 µM).
